Assays:
[1] = Agonist activity at human PGI2 receptor assessed as inhibition of ADP-induced platelet aggregation
[2] = Agonist activity at rat PGI2 receptor assessed as inhibition of ADP-induced platelet aggregation

Structure (SMILES) | IC50 [1] | IC50 [2]
O=C(O)COc1cccc(C[C@@H]2CCCC[C@H]2c2nc(-c3ccccc3)c(-c3ccccc3)o2)c1 [sodium 2-(3-(((1S,2R)-2-(4,5-diphenyloxazol-2-yl)cyclohexyl)methyl)phenoxy)acetate] | 114 nM | 
O=C(O)COc1cccc(Cc2ccccc2-c2nc(-c3ccccc3)c(-c3ccccc3)o2)c1 [sodium 2-(3-(2-(4,5-diphenyloxazol-2-yl)benzyl)phenoxy)acetate] | 930 nM | 
O=C(O)COc1cccc(C[C@@H]2CCC[C@H]2c2nc(-c3ccccc3)c(-c3ccccc3)o2)c1 [sodium 2-(3-(((1S,2R)-2-(4,5-diphenyloxazol-2-yl)cyclopentyl)methyl)phenoxy)acetate] | 39 nM | 
O=C(O)COc1cccc(CC2CCCC=C2c2nc(-c3ccccc3)c(-c3ccccc3)o2)c1 [Sodium; {3-[(R)-2-(4,5-diphenyl-oxazol-2-yl)-cyclohex-2-enylmethyl]-phenoxy}-acetate] | 60 nM | 1200 nM
O=C(O)COc1cccc(CC2=C(c3nc(-c4ccccc4)c(-c4ccccc4)o3)CCCC2)c1 [sodium 2-(3-((2-(4,5-diphenyloxazol-2-yl)cyclohex-1-enyl)methyl)phenoxy)acetate] | 533 nM | 

Results, then the molecule that gave them:

IC50 [1] | IC50 [2] | Structure (SMILES)
53 nM |  | O=C(O)COc1cccc(C[C@@H]2CCC[C@@H]2c2nc(-c3ccccc3)c(-c3ccccc3)o2)c1 [sodium 2-(3-(((1S,2S)-2-(4,5-diphenyloxazol-2-yl)cyclopentyl)methyl)phenoxy)acetate]
48 nM | 700 nM | O=C(O)COc1cccc(CN2CCC[C@@H]2c2nc(-c3ccccc3)c(-c3ccccc3)o2)c1 [sodium (R)-2-(3-((2-(4,5-diphenyloxazol-2-yl)pyrrolidin-1-yl)methyl)phenoxy)acetate]
115 nM |  | O=C(O)COc1cccc(C[C@@H]2CCCC[C@@H]2c2nc(-c3ccccc3)c(-c3ccccc3)o2)c1 [sodium 2-(3-(((1S,2S)-2-(4,5-diphenyloxazol-2-yl)cyclohexyl)methyl)phenoxy)acetate]
58 nM | > 10000 nM | O=C(O)COc1cccc(CN2CCC[C@H]2c2nc(-c3ccccc3)c(-c3ccccc3)o2)c1 [sodium (S)-2-(3-((2-(4,5-diphenyloxazol-2-yl)pyrrolidin-1-yl)methyl)phenoxy)acetate]
